From patent publication US4031218A, “7-(2,3-Dihydroxypropyl-1,3-di-n-propylxanthine and a pharmaceutical composition containing same useful as a bronchial muscle relaxant” (Mallinckrodt, Inc., priority 1976, dated 1977)
“Also recorded” adds a separate entry of the source.

What was measured:
[1] = tested on: dogs; assay: Intravenous cardiovascular evaluation in dogs; conditions: for CF (coronary flow) change / CO (cardiac output) change / CW (cardiac work) change / HR (heart rate) change / MAP (mean arterial pressure) change / MCF (myocardial contractile force) change / TPR (total peripheral resistance) change / Cardiovascular effects (Mean): i.v. dogs, estimated at HBD; for I.V. Cardiovascular (Dogs), mean relative molar activity: mean for arterial pressure, heart rate, contractile force, cardiac output, stroke volume, cardiac work, TPR, coronary flow and resistance, relative to theophylline; for Cardiovascular effects (Mean): mean of the cardiovascular changes
Method: Intravenous Cardiovascular Evaluation in Dogs
Thirteen adult mongrel dogs of either sex ranging in weight from 16.7 to 25.0 kg were employed to compare the overall intravenous cardiovascular activity of the five experimental compounds.
Dogs were anesthetized with pentobarbital sodium, 30-35 mg/kg i.v., fitted with a cuffed endotracheal tube, and ventilated with a Harvard Animal Respiratory Pump. A femoral vein was cannulated for i.v. drug administration. The left common carotid artery was cannulated and the cannula tip advanced into the aortic arch. A median sternotomy was performed and appropriately sized electromagnetic blood flow transducers (Biotronex) were placed around the ascending aorta and left anterior descending coronary artery. These procedures allowed continuous recording or calculation of the following parameters:
a. Mean Arterial Pressure (MAP); from the aortic cannula.
b. Heart Rate (HR); electronically from pulsatile ascending aortic flow.
c. Cardiac Output (CO); mean ascending aortic flow.
d. Myocardial Contractile Force (MCF); dQ/dt, the first derivative of maximum aortic flow rate, also known as peak aortic flow acceleration.
e. Stroke Volume (SV); quotient of CO/HR.
f. Cardiac Work (CW); product of CO X MAP.
g. Total Peripheral Resistance (TPR); quotient of MAP/CO.
h. Coronary Flow (CF); mean left anterior descending (LAD) coronary flow.
i. Coronary Resistance (CR); quotient of MAP/CF.
Logarithmically increasing doses of the appropriate compound were injected at 20-minute intervals. Responses were measured at 1, 2, 5, 10, 15 and 20 minutes after each dose and the average response during that period was calculated. Theophylline (aminophylline), dyphylline (II), and Compound V were employed in both 20 and 80 mg/ml concentrations in distilled water. Compounds III and IV were used in 10 and 30 mg/ml concentrations respectively.

[2] = prior art statement; cited from earlier work
[3] = tested on: mice; assay: Voluntary motor activity in mice (CNS stimulation); type: in vivo, male albino Swiss mice; conditions: for I.P. CNS Stimulation (Mice), relative molar activity: relative to theophylline, molar basis; for CNS Activity, I.P. Mice / CNS Activity, I.P. Mice, change: estimated at HBD; for CNS Activity, I.P. Mice, change: voluntary motor activity
Method: F. Voluntary Motor Activity Studies in Mice In an attempt to quantitatively assess central nervous system activity, each compound was evaluated for its influence on voluntary motor activity in mice according to the method described by Dews (British J. Pharmacol. 8:46, 1953). Three cylindrical actophotometer cages were utilized simultaneously, each with six light beams and six photoelectric cells. Individual digital counters were connected to each activity cage. Male albino Swiss mice with weights ranging between 19 and 24 gm were used throughout. Compounds were dissolved in distilled water and were injected intraperitoneally in logarithmically spaced doses to groups of five mice, three groups per dose level. Control groups received saline.

[4] = tested on: histamine-induced bronchospasm; assay: Protection against histamine aerosol in guinea pigs (in vivo bronchodilator); design: species or system guinea pig; conditions: relative to theophylline, molar basis; for Bronchodilator activity, In-Vivo I.P. (G. Pig), relative molar activity: 15-20 min after injection; for Bronchodilator activity, In-Vivo, Oral (G. Pig), relative molar activity: 35-40 min after gavage
Method: With the exception of theophylline, all compounds were administered as the free base dissolved or suspended in appropriate aqueous vehicles. […] Final comparisons were always based on the calculated dose of theophylline. Because of obvious differences in molecular weights, all compounds were compared on a molar basis rather than on absolute weight.
2. Protection Against Histamine Aerosol
Adult Camm English Short Hair male albino guinea pigs (270-600 gm.) were singularly confined in an inverted glass aquarium and continuously exposed to a finely atomized mist of 0.5% histamine diphosphate produced by a Devilbiss No. 40 nebulizer and compressed air at 300 mm. Hg. pressure. The period from the start of aerosolization until the appearance of ultimate collapse or convulsions is defined as the preconvulsive time and is relatively constant in the same animal. Preconvulsive times were determined for each dose of each compound in at least six guinea pigs. Control preconvulsive times were obtained three days prior to and three days following drug administration. Percent protection afforded by each compound was calculated by the formula:
% Protection = (1- C/T) × 100
where C is the average control preconvulsive time and T is the test preconvulsive time after compound administration, both in seconds.
The PD50 of each experimental compound was determined after both intraperitoneal and oral administration. A minimum of 3 dose levels and 6 animals per dose were employed to obtain meaningful dose-response data. Protection was assessed 15-20 minutes after intraperitoneal injection and 35-40 minutes after oral gavage with a flexible plastic tube. Animals were fasted overnight prior to oral dosing. All compounds were administered in aqueous solution in concentrations commensurate to a proper volume dose. Guinea pigs were utilized between 1 and 3 times but no animal received the same compound twice in succession with a minimum of 3 days rest between doses.

[5] = prior art statement; listed as dyphylline; cited from earlier work
[6] = tested on: rats; assay: Acute oral diuretic evaluation in rats; type: in vivo, Sprague Dawley rats; conditions: relative to theophylline, molar basis
Method: 1. Acute Oral Evaluation in Rats
The oral diuretic effect of each compound was estimated in rats by a modification of the method described by Lipschitz et al. (J. Pharmacol. Exp. Ther. 79:97, 1943). Male Sprague Dawley rats (Carworth) weighing between 153 and 220 gms were fasted overnight. Groups of five animals each were administered three appropriate logarithmically spaced doses of each compound dissolved in saline in a constant volume dose of 25 ml/kg via an oral feeding needle. Controls received the same dose of only saline. The rats were then placed in individual metabolism cages and deprived of food and water for the remainder of the experiment. At the end of six hours, each rat was forced to expel urine in the bladder by pulling on the base of the tail. Parameters measured included urine volume, pH, and sodium and potassium excretion as measured by atomic absorption analysis. Six hour values were averaged for each dose of compound and for controls and were compared accordingly.

[7] = Summary of relative molar activities (means and therapeutic efficacy); conditions: for Therapeutic Efficacy: mean bronchodilator (therapeutic) activity divided by mean acute toxic and side effect activity; for Mean acute toxicity and side effect activity (relative molar): mean of acute toxicity and side effect lines of Table I; for Mean acute toxicity and side effect activity (relative molar) / Mean bronchodilator activity (relative molar): relative to theophylline; for Mean bronchodilator activity (relative molar): mean of bronchodilator lines of Table I
From the text: ^g - Mean bronchodilator (therapeutic) activity divided by mean acute

[8] = tested on: isolated rabbit heart; assay: Isolated rabbit heart preparation (Langendorff); type: cell-based; conditions: mean for myocardial contractile force, heart rate, coronary flow; relative to theophylline
Method: 2. Isolated Rabbit Heart Preparation
In-vitro cardiodynamic activity of each compound except dyphylline was determined on the spontaneously beating isolated rabbit heart by the Langendorff method as modified by Anderson and Craver (J. Pharmacol. Exp. Ther., 93:135, 1948). After securing the extracted heart's ascending aorta to the apparatus, the coronaries were continuously perfused with aerated Chenoweth's solution (Chenoweth and Koelle, J. Lab. Clin. 31:600, 1946) maintained at a constant pressure-head and temperature of 38° C. The effects of logarithmically increasing doses of each compound were determined on contractile force, heart rate, and coronary flow. Drugs were dissolved in minimal volumes of Chenoweth's solution and injected into the downspout containing perfusate at 5-10 minute intervals.

[9] = U.S. Pat. No. 2,756,229, in comparison with theophylline; cited from earlier work

SMILES | CF (coronary flow) change [1] | CO (cardiac output) change [1] | CW (cardiac work) change [1] | HR (heart rate) change [1] | MAP (mean arterial pressure) change [1] | MCF (myocardial contractile force) change [1] | TPR (total peripheral resistance) change [1] | I.V. Cardiovascular (Dogs), mean relative molar activity [1] | Cardiovascular effects (Mean) [1] | I.P. CNS Stimulation (Mice), relative molar activity [3] | Bronchodilator activity, In-Vivo I.P. (G. Pig), relative molar activity [4] | Bronchodilator activity, In-Vivo, Oral (G. Pig), relative molar activity [4] | Oral Diuretic (Rats), relative molar activity [6] | Therapeutic Efficacy [7] | Mean acute toxicity and side effect activity (relative molar) [7] | Mean bronchodilator activity (relative molar) [7] | In-Vitro; MCF, HR, CF (Rabbit Heart), mean relative molar activity [8] | CNS Activity, I.P. Mice [3] | CNS Activity, I.P. Mice, change [3] | Diuretic activity in words (prior art) [9] | also measured
Cn1c(=O)c2c(ncn2CC(O)CO)n(C)c1=O (centres unmarked) [Compound II, 7-(2,3-dihydroxypropyl) 1,3-dimethylxanthine] | +10 %Δ | -15 %Δ | -30 %Δ | +11 ΔBPM | -20 ΔmmHg | -5 %Δ | +3 %Δ | 0.36 | 13 | 0.18 | 0.12 | 0.13 | 0.71 | 2.31 | 0.26 | 0.60 | – | – | – | – | Water solubility in words (prior art) [2]: high water solubility; Bronchodilator activity / potency in words (prior art) [5]: less bronchodilator potency than theophylline; also recorded: markedly decreases overall potency
CCCn1c(=O)c2c(ncn2CC(O)CO)n(CCC)c1=O (centres unmarked) [Compound V, 7-(2,3-dihydroxypropyl)-1,3-di-n-propylxanthine] | +17 %Δ | +6 %Δ | +2 %Δ | +7 ΔBPM | -5 ΔmmHg | +15 %Δ | -9 %Δ | 0.91 | 9 | 0.30 | 1.56 | 0.75 | 1.05 | 2.51 | 0.70 | 1.76 | 0.93 | None | -1 %Δ | – | –
CCCn1c(=O)c2c(ncn2CC(C)O)n(CCC)c1=O (centres unmarked) [III, 7-(2-hydroxypropyl) 1,3-di-n-propylxanthine] | +8 %Δ | +10 %Δ | +2 %Δ | +21 ΔBPM | -8 ΔmmHg | +28 %Δ | -15 %Δ | 1.16 | 13 | 1.73 | 3.26 | 3.30 | 7.29 | 0.09 | 36.55 | 3.46 | 1.40 | Severe | -60 %Δ | strong diuretics | –
CCCn1c(=O)c2c(ncn2CCCO)n(CCC)c1=O [IV, 7-(3-hydroxypropyl)-1,3-di-n-propylxanthine] | +4 %Δ | +2 %Δ | -26 %Δ | +80 ΔBPM | -25 ΔmmHg | +20 %Δ | -5 %Δ | 2.02 | 23 | 0.48 | 0.94 | 0.92 | 1.48 | 0.72 | 2.60 | 1.87 | 1.81 | Moderate | -17 %Δ | strong diuretics | –
